# Results reported in ChEMBL document CHEMBL4806964, “Heterocyclic compound” (2019).
# Columns and labels:
# [1] = target: T1, CDK12/Cyclin K (Homo sapiens) (UniProt O75909+Q9NYV4); assay: Inhibition of human His-tagged CDK12/CycK using ULight-labeled eIF4E-binding protein 1 substrate at 1 uM incubated for 60 mins by fluorescence based assay relative to control; assay type: protein-complex assay
# [2] = target: T1, CDK12/Cyclin K (Homo sapiens); assay: Inhibition of BODIPY-FL-labeled AT-7519 binding to human His-tagged CDK12/CycK assessed as BODIPY-FL-labeled AT-7519 binding by measuring fluorescence intensity at 1 uM incubated for 120 mins in presence of 3 uM BODIPY-FL-labeled AT-7519 by TR-FRET assay relative to control; assay type: protein-complex assay
# [3] = tested on: A2780; assay: Antiproliferative activity against human A2780 cells at 1 uM by CellTiter-Glo reagent assay relative to control; assay type: functional
# [4] = target: T1, CDK12/Cyclin K (Homo sapiens); assay: Inhibition of human CDK12/CycK in human A2780 cells assessed as intracellular phosphorylated CTD Ser2 art 1 uM by In-Cell Western method relative to control; assay type: cell-based
# [5] = target: T1, CDK12/Cyclin K (Homo sapiens); assay: Inhibition of BODIPY-FL-labeled AT-7519 binding to human His-tagged CDK12/CycK assessed as BODIPY-FL-labeled AT-7519 binding by measuring fluorescence intensity at 1 uM incubated for 120 mins in presence of 30 uM BODIPY-FL-labeled AT-7519 by TR-FRET assay relative to control; assay type: protein-complex assay
# T1 sequence (O75909 whole entry, looked up): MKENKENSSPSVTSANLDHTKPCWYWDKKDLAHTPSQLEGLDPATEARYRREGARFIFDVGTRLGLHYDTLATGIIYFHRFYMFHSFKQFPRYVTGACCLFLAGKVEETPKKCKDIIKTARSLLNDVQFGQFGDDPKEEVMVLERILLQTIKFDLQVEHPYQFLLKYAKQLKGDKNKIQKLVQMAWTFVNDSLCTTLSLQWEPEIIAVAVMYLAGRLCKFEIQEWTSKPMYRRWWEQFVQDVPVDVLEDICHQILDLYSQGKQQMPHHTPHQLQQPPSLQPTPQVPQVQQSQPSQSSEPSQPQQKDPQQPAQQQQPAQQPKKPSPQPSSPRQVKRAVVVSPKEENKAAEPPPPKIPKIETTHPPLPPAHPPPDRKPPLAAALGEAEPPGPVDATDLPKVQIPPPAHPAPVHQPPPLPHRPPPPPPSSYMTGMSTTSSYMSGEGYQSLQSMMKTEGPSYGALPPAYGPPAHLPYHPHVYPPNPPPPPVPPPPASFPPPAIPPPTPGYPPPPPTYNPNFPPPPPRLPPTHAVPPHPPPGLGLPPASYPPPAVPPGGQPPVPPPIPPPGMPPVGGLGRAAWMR
# T1 sequence (Q9NYV4 whole entry, looked up): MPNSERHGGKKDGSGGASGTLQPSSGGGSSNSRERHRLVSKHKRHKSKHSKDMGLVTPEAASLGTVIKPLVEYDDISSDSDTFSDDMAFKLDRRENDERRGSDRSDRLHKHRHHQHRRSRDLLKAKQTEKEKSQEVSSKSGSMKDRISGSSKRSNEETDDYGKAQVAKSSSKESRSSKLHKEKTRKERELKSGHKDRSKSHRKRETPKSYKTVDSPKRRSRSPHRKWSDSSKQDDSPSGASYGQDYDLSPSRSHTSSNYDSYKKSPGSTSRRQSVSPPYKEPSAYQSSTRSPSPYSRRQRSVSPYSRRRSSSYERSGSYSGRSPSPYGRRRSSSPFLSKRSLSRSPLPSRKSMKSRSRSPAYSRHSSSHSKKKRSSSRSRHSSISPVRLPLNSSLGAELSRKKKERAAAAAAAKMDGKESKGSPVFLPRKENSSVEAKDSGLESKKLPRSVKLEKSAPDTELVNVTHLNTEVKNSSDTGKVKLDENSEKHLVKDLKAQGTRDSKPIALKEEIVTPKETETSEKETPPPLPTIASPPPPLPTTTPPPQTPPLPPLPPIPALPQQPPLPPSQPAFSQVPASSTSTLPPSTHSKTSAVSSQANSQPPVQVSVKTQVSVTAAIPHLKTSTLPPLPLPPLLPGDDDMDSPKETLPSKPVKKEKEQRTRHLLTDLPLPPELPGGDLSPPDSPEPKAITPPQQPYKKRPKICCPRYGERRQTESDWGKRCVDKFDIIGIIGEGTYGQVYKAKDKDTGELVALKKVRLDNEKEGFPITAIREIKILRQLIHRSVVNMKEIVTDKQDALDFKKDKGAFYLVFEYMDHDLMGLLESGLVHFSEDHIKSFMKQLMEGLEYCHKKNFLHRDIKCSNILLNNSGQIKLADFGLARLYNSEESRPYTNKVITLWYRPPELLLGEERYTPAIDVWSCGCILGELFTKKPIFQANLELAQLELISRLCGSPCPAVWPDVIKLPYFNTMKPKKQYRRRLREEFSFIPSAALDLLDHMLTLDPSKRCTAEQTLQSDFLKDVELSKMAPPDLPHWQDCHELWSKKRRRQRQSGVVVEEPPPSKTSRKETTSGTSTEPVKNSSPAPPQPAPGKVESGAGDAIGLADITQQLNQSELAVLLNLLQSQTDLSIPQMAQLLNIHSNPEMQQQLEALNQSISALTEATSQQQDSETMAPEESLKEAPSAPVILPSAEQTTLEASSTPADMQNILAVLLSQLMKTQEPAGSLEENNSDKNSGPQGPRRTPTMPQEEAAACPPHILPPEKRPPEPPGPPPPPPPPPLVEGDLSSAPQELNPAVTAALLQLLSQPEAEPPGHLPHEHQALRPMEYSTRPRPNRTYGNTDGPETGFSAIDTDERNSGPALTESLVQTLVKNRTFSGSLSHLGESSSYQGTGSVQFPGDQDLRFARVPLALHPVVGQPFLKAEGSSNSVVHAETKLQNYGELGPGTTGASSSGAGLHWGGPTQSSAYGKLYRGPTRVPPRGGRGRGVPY
Compound,inhibition [2] [%],inhibition [5] [%],also measured
COc1ncc(-c2cnc(N(C(=O)NCc3ccccn3)[C@H]3CC[C@H](Nc4ncc(C(F)(F)F)c(OC5COC5)n4)CC3)nc2)cn1,103,,inhibition [1]: 99%; inhibition at 1 µM [3]: 98%
COc1ncc(-c2cnc(N(C(=O)NCc3ccccc3)[C@H]3CC[C@H](Nc4ncc(C#N)c(N5CC(C)(O)C5)n4)CC3)nc2)cn1,95,,inhibition [1]: 105%; inhibition [4]: 54%; inhibition at 1 µM [3]: 94%
COc1ncc(-c2ccc(N(C(=O)COc3ccccc3)[C@H]3CC[C@H](Nc4ncc(C#N)c(OC5COC5)n4)CC3)nc2)cn1,98,,
COc1ncc(-c2ccc(N(C(=O)COc3ccccc3)[C@H]3CC[C@H](Nc4ncc(C#N)c(N5CCCC(O)CC5)n4)CC3)nc2)cn1 (some centres undefined),104,,
COc1ncc(-c2cnc(N(C(=O)NCc3ccccc3)[C@H]3CC[C@H](Nc4ncc(C#N)c(N5CCCC(O)CC5)n4)CC3)nc2)cn1 (some centres undefined),,,inhibition [4]: 48%
Cn1cc(-c2ccc(N(C(=O)NCc3ccccc3)[C@H]3CC[C@H](Nc4ncc(C#N)c(-c5[nH]ncc5O)n4)CC3)nc2)cn1,96,,
COc1ncc(-c2cnc(N(C(=O)NCc3ccccc3)[C@H]3CC[C@H](Nc4ncc(C(F)(F)F)c(NC5COC5)n4)CC3)nc2)cn1,96,,

# The next lines start with results.
inhibition [2] [%],inhibition [5] [%],Compound,also measured
100,,COc1ncc(-c2cnc(N(C(=O)COc3ccccc3)[C@H]3CC[C@H](Nc4ncc(C(F)(F)F)c(N5CC(C)(O)C5)n4)CC3)cn2)cn1,
103,,COc1ncc(-c2cnc(N(C(=O)NCc3ccccc3)[C@H]3CC[C@H](Nc4ncc(C(F)(F)F)c(N5CC(C)(O)C5)n4)CC3)cn2)cn1,
,99,COc1ncc(-c2cnc(N(C(=O)OCCN3CCOCC3)[C@H]3CC[C@H](Nc4ncc(C(F)(F)F)c(-c5cncc(S(N)(=O)=O)c5)n4)CC3)cn2)cn1,
,90,COCCNC(=O)N(c1cnc(-c2cnc(OC)nc2)cn1)[C@H]1CC[C@H](Nc2ncc(C(F)(F)F)c(-c3ccn(C(F)F)n3)n2)CC1,
,99,CCCC(=O)N(c1cnc(-c2cnn(C)c2)cn1)[C@H]1CC[C@H](Nc2ncc(C(F)(F)F)c(-c3cncc(S(N)(=O)=O)c3)n2)CC1,
,91,COCCOC(=O)N(c1cnc(-c2cnc(OC)nc2)cn1)[C@H]1CC[C@H](Nc2ncc(C(F)(F)F)c(-c3cncc(S(N)(=O)=O)c3)n2)CC1,
,95,COCC(=O)N(c1cnc(-c2cnn(C)c2)cn1)[C@H]1CC[C@H](Nc2ncc(C(F)(F)F)c(-c3cncc(S(N)(=O)=O)c3)n2)CC1,
